Results from the NIST ThermoML archive (doi:10.1021/acs.jced.7b00904).

Assay: wn = mass fraction of the nth substance listed
Conditions: 295 K; for surface tension liquid-gas: Wilhelmi plate; for mass density / viscosity: 101.3 kPa, Liquid; for mass density: Buoyancy - hydrostatic balance; for viscosity: Concentric cylinders viscometry

N#C[S-].[K+] [potassium thiocyanate] + O
Conditions | mass density [kg/m3] | surface tension liquid-gas [mN/m] | viscosity [mPa·s]
w1 = 0.03 | 1013 | 67.25 | 0.834
w1 = 0.05 | 1022 | 61.98 | 0.845
w1 = 0.07 | 1031 | 58.59 | 0.825
w1 = 0.1 | 1047 | 57.2 | 0.843
w1 = 0.2 | 1100 | 57.79 | 0.881
w1 = 0.3 | 1157 | – | 0.916
w1 = 0.4 | 1218 | 55.45 | 1.101
w1 = 0.5 | 1283 | 56.47 | 1.321
w1 = 0.6 | 1353 | 62.93 | 1.979
w1 = 0.65 | 1392 | 73.26 | 2.588
w1 = 0.68 | 1414 | 74.62 | 3.125
